According to patent US20240228493A1, “LRRK2 INHIBITORS AND USES THEREOF” (NEURON23, ICN., priority 2022, published 2024):

Key:
[1] = tested on: Caco-2 cells; assay: Caco-2 bidirectional permeability; format: in vitro ADME; details: for Caco-2 ER: Efflux Ratio=Papp(BA)/Papp(AB); for Caco-2 A2B (10^−6 cm/s): apical to basolateral; for Caco-2 A2B (10^−6 cm/s) / Caco-2 B2A (10^−6 cm/s): 2 hours, pH 7.4; for Caco-2 B2A (10^−6 cm/s): basolateral to apical
Description: The compounds disclosed herein were tested in vitro on CaCo2 cell penetration according to the following procedures.
Caco-2 cells purchased from ATCC were seeded onto […] (PET) in 96-well Corning Insert plates at 1×10^5 cells/cm^2. The media were refreshed every 4 to 5 days until the 21st to 28th day for confluent cell monolayer formation.
Experiments were run in duplicate using a HBSS transport buffer containing 10 mM HEPES at pH 7.4. The test article TEST COMPOUND was tested bi-directionally at […] concentrations, the control compound digoxin was tested bi-directionally at 10 μM, and nadolol and metoprolol were tested at 2.0 μM in the A to B direction. Final DMSO concentrations were adjusted to less than 1%. The plates were incubated for 2 hours in a CO2 incubator at 37±1° C. with 5% CO2 at saturated humidity without shaking. Following incubation, samples were mixed with acetonitrile containing internal standard and centrifuged at 3200×g for 10 minutes. Then 200 μL of supernatant was taken from all samples. For TEST COMPOUND and digoxin, the supernatant was diluted with 200 μL of ultra-pure water and for nadolol and metoprolol, the supernatant was diluted with 600 μL of ultra-pure water. All samples were analyzed by LC-MS/MS. Concentrations of TEST COMPOUND and control compounds were determined in starting solutions, donor well solutions, and receiver well solutions using peak area ratios (PAR) of analyte to internal standard. After the transport assay, a lucifer yellow rejection assay was run to determine the Caco-2 cell monolayer integrity.
The apparent permeability (Papp), the % recovery and the efflux ratio were calculated as follows:
Papp=(dCr/dt)×Vr/(A×C0) 1.
Efflux Ratio=Papp(BA)/Papp(AB) 3. • Where: • dCr/dt is the slope of the cumulative concentration in the receiver compartment versus time (mM/s). • Vr and Vd is the volume in the receiver and donor compartments (0.075 mL on the apical side, 0.25 mL on the basolateral side), respectively. • A is the surface area of the cell monolayer (0.0804 cm^2). • C0 is the measured donor concentrations (μM) at the beginning of the experiment. • Cd and Cr are the final measured concentrations in the donor and receiver compartments, respectively.

[2] = tested on: human hepatocyte; assay: Human hepatocyte stability, predicted hepatic clearance (h-Hept CL predict); format: in vitro ADME; details: human hepatocytes, 0.5×10^6 cells/mL, 1 μM, values without asterisk
Description: The compounds disclosed herein were tested in vitro on human hepatocyte for in vitro h-Hept CL predict according to the following procedures. • 1. Compound sock solutions were prepared by dissolving test compound and positive control in dimethyl sulfoxide (DMSO) at a concentration of 10 mM. Stock solutions were then diluted to 100 μM solutions by combining 198 μL of 50% acetonitrile/50% water with 2 μL of the 10 mM stock in separate conical tubes. • 2. Cryopreserved hepatocytes were prepared as follows: Incubation medium (William's E Medium supplemented with GlutaMAX) and hepatocyte thawing medium were placed in a 37° C. water bath and allowed to warm for at least 15 minutes prior to use. Cryopreserved hepatocytes were removed from storage, ensuring that vials remained at cryogenic temperatures until thawed. Cells were thawed by placing the vials in a 37° C. water bath and gently shaking the vials for 2 minutes. After thawing was completed, vials were sprayed with 70% ethanol and transferred to a biosafety cabinet. Hepatocytes were transferred into 50 mL conical tube containing thawing medium using wide-bore pipette tips. Tubes were placed into a centrifuge and spun at 100 g for 10 minutes. Then thawing medium was aspirated and hepatocytes were resuspended in enough incubation medium to yield ˜1.5×10^6 cells/mL. Cells were counted using acridine orange and propidium iodide (AO/PI) staining, and the viable cell density was determined. Cells were diluted with incubation medium to a working cell density of 0.5×10^6 viable cells/mL. • 3. To determine hepatocyte stability, 198 μL of hepatocytes were transferred into each well of a 96-well non-coated plate. Plates were placed in an incubator to allow the hepatocytes to warm for 10 minutes. • 4. The reaction was started by transferring 2 μL of the 100 μM test compound or positive control solution into respective wells of the 96-well non-coated plates. Plates were returned to the incubator until 25 μL aliquots of well contents were sampled at time points of 0, 15, 30, 60, 90 and 120 minutes. The aliquots were then mixed with 6 volumes (150 μL) of acetonitrile containing internal standard, IS (100 nM alprazolam, 200 nM caffeine and 100 nM tolbutamide) to terminate the reaction and vortexed for 5 minutes. After centrifuging the samples for 45 minutes at 3,220 g, aliquots of 100 μL of the supernatant were taken and diluted with 100 μL of ultra-pure water. The mixture was used for LC/MS/MS analysis. All incubations were performed in duplicate.
All calculations were carried out using Microsoft Excel. Peak area ratios (PAR) were determined from extracted ion chromatograms. The in vitro half-life (t1/2) of parent compound was determined by regression analysis of the percent parent disappearance vs. time curve as follows:
Conversion of the in vitro t1/2 (in minutes) into the in vitro intrinsic clearance (in vitro CLint, in μL/min/1×10^6 cells) was done using the following equation (mean of duplicate determinations): […]
The scaled-up intrinsic clearance (CLint, mL/min/kg), predicted hepatic clearance (CLH, mL/min/kg) and hepatic extraction ratio (ER) were calculated using the following equations:
CLint=(0.693/t1/2)*(1/(hepatocyte concentration (0.5*10^6 cells/mL)))*scaling factors (Table (A) Appendix Table 1)
CLHept-predict=(QH*Scaled-up CLint*fub)/(QH+Scaled-up CLint*fub)
ER=CLH/QH • Where: • V=incubation volume (0.2 mL) • N=number of hepatocytes per well (0.1*10^6 cells) • QH=hepatic blood flow (mL/min/kg) (Table (A) Appendix Table 1) • fub=fraction of unbound drug in plasma, assumed to be 1

[3] = target: T1, wt human LRRK2, catalytic site (Homo sapiens, UniProt Q5S007); assay: TR-FRET LanthaScreen Tb Kinase Activity Assay, LRRK2 inhibition; format: biochemical; details: 2 nM wt human LRRK2, 400 nM peptide, 38 μM ATP
T1 construct: wt human LRRK2, catalytic site, catalytic site (ThermoFisher/USA); purchased ThermoFisher
T1 sequence (Q5S007 1879-2138 limits assumed): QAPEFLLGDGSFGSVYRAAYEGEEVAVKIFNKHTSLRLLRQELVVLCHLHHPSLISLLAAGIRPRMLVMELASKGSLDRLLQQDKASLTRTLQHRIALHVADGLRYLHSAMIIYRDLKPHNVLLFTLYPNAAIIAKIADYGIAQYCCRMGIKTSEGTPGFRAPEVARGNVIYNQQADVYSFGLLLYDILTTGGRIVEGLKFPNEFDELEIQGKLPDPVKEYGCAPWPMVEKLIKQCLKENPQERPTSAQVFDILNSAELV
Description: The compounds disclosed herein were tested for their inhibitory effect on LRRK2 kinase according to the following procedures.
The protocol for basic TR-FRET LanthaScreen Tb Kinase Activity Assay inhibitor studies were as follows. LanthaScreen Kinase Activity Assays (ThermoFisher/USA) to evaluate inhibitors were performed by addition of 100 nL of test compound in corresponding DMSO dilutions/5 μL of kinase/fluorescein-ERM (LRRKtide) peptide mixture, Compound & kinase were pre-incubated for 15 minutes, then 5 μl of ATP into 384 well small volume plates. After incubation for 120 minutes at room temperature, the detection reagents containing Tb-anti-pLRRKtide antibody were added to monitor phosphorylation level of peptide. Then, after 60 min minutes incubation at room temperature plates were read in Envision. Data analysis of emission ratios was according to LanthaScreen Tb Kinase Activity Assay protocol.
Kinase and assay components were adjusted to final concentrations according to the kit protocol. For LRRK2: 2 nM wt human LRRK2, catalytic site, catalytic site (ThermoFisher/USA), 400 nM peptide, 38 μM ATP in 1× Kinase Buffer A. […]
Kinase and assay components were adjusted to final concentrations according to the kit protocol.

Structure (SMILES)	Caco-2 ER [1]	Caco-2 A2B (10^−6 cm/s) [1]	Caco-2 B2A (10^−6 cm/s) [1]	hHep Cl (mL/min/kg) [2]	IC50 [3]
Cc1n[nH]c2c1N=C(c1c(F)cccc1F)Nc1cnc(N3CCO[C@]4(CCOC4)C3)cc1-2 (single isomer, unassigned) [Example 4]	L (L (Likely)”: ER≥2.5)	M (M (Moderate permeability)”: 1≤A2B (B2A)≤5)	H (H (High permeability)”: A2B (B2A)>5)	L (L (Low Cl)”: Hep Cl (mL/min/kg)<6.3)	< 1 nM
OCc1ccc(F)c(C2=Nc3c(Cl)n[nH]c3-c3cc(N4CCOCC4)ncc3N2)c1F [Example 21, (3-(3-chloro-9-morpholino-1,6-dihydropyrazolo[4,3-d]pyrido[4,3-f][1,3]diazepin-5-yl)-2,4-difluorophenyl)methanol]	L (L (Likely)”: ER≥2.5)	L (L (Low permeability)”: A2B (B2A)<1)	H (H (High permeability)”: A2B (B2A)>5)	L (L (Low Cl)”: Hep Cl (mL/min/kg)<6.3)	< 1 nM
Cc1cc(F)c(C2=Nc3cn[nH]c3-c3cc(N4CCOCC4)ncc3N2)c(F)c1 [Example 51, 4-(5-(2,6-difluoro-4-methylphenyl)-1,6-dihydropyrazolo[4,3-d]pyrido[4,3-f][1,3]diazepin-9-yl)morpholine]	L (L (Likely)”: ER≥2.5)	H (H (High permeability)”: A2B (B2A)>5)	H (H (High permeability)”: A2B (B2A)>5)	I (I (Intermediate Cl)”: 6.3≤Hep Cl (mL/min/kg)≤14.7)	1 to 100 nM
Fc1cccc(Cl)c1C1=Nc2c(Cl)n[nH]c2-c2cc(N3CCOCC3)ncc2N1 [Example 24, (4-[5-chloro-8-(2-chloro-6-fluoro-phenyl)-3,4,7,9,12-pentazatricyclo[8.4.0.02,6]tetradeca-1(10),2(6),4,7,11,13-hexaen-13-yl]morpholine)]	L (L (Likely)”: ER≥2.5)	M (M (Moderate permeability)”: 1≤A2B (B2A)≤5)	H (H (High permeability)”: A2B (B2A)>5)	I (I (Intermediate Cl)”: 6.3≤Hep Cl (mL/min/kg)≤14.7)	< 1 nM
Cc1n[nH]c2c1N=C(c1c(F)cccc1F)Nc1cnc(N3CCN(C)CC3)cc1-2 [Example 8, 8-(2,6-difluorophenyl)-5-methyl-13-(4-methylpiperazin-1-y1)-3,4,7,9,12-pentazatricyclo[8.4.0.02,6]tetradeca-1(10),2(6),4,7,11,13-hexaene]	L (L (Likely)”: ER≥2.5)	M (M (Moderate permeability)”: 1≤A2B (B2A)≤5)	H (H (High permeability)”: A2B (B2A)>5)	L (L (Low Cl)”: Hep Cl (mL/min/kg)<6.3)	< 1 nM
Cc1n[nH]c2c1N=C(c1c(F)cccc1F)Nc1cnc(N3CCNCC3)cc1-2 [Example 10, 8-(2,6-difluorophenyl)-5-methyl-13-piperazin-1-yl-3,4,7,9,12-pentazatricyclo[8.4.0.02,6]tetradeca-1(10),2(6),4,7,11,13-hexaene]	L (L (Likely)”: ER≥2.5)	L (L (Low permeability)”: A2B (B2A)<1)	H (H (High permeability)”: A2B (B2A)>5)	L (L (Low Cl)”: Hep Cl (mL/min/kg)<6.3)	1 to 100 nM
Cc1n[nH]c2c1N=C(c1c(F)cccc1F)Nc1cnc(N3CCC[C@H](C#N)C3)cc1-2 [Example 19, (3S)-1-[8-(2,6-difluorophenyl)-5-methyl-3,4,7,9,12-pentazatricyclo [8.4.0.02,6]tetradeca-1(10),2(6),4,7,11,13-hexaen-13-yl]piperidine-3-carbonitrile]	L (L (Likely)”: ER≥2.5)	M (M (Moderate permeability)”: 1≤A2B (B2A)≤5)	H (H (High permeability)”: A2B (B2A)>5)	L (L (Low Cl)”: Hep Cl (mL/min/kg)<6.3)	1 to 100 nM
Cc1n[nH]c2c1N=C(c1c(F)cccc1F)Nc1cnc(N3CC[C@@H](C#N)C3)cc1-2 [Example 49, (R)-1-(5-(2,6-difluorophenyl)-3-methyl-1,6-dihydropyrazolo[4,3-d]pyrido[4,3-f][1,3]diazepin-9-y1)pyrrolidine-3-carbonitrile]	L (L (Likely)”: ER≥2.5)	M (M (Moderate permeability)”: 1≤A2B (B2A)≤5)	H (H (High permeability)”: A2B (B2A)>5)	I (I (Intermediate Cl)”: 6.3≤Hep Cl (mL/min/kg)≤14.7)	1 to 100 nM
[2H]C1([2H])OC([2H])([2H])C([2H])([2H])N(c2cc3c(cn2)NC(c2c(F)cccc2F)=Nc2c(Cl)n[nH]c2-3)C1([2H])[2H] [Example 25, 4-[5-chloro-8-(2,6-difluorophenyl)-3,4,7,9,12-pentazatricyclo[8.4.0.02,6]tetradeca-1(10),2(6),4,7,11,13-hexaen-13-yl]-2,2,3,3,5,5,6,6-octadeuterio-morpholine]	L (L (Likely)”: ER≥2.5)	M (M (Moderate permeability)”: 1≤A2B (B2A)≤5)	H (H (High permeability)”: A2B (B2A)>5)	L (L (Low Cl)”: Hep Cl (mL/min/kg)<6.3)	< 1 nM
